Source: PubChem BioAssay (NCI)
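Tested at 5 concentrations; 48 h exposure; 96-well plates; endpoints linearly interpolated, else capped at highest concentration. At the TGI there is no net growth.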

Columns and labels:
Assay in all cases: NCI tumour cell line growth inhibition, 48 h
[1] = test system: SNB-19 CNS
[2] = test system: HCC-2998 colon
[3] = test system: DU-145 prostate
[4] = test system: NCI-H460 lung
[5] = test system: OVCAR-8 ovarian
[6] = test system: HT29 colon
[7] = test system: CAKI-1 renal
[8] = test system: SF-539 CNS
[9] = test system: TK-10 renal
[10] = test system: SNB-75 CNS
[11] = test system: HCT-15 colon
[12] = test system: SN12C renal
[13] = test system: HOP-92 NSCLC
[14] = test system: CCRF-CEM leukemia
[15] = test system: ACHN renal
[16] = test system: NCI-H522 lung
[17] = test system: NCI-H226 lung
[18] = test system: 786-0 renal
[19] = test system: SW-620 colon
[20] = test system: HS 578T breast
[21] = test system: UACC-62 melanoma
[22] = test system: MCF7 breast
[23] = test system: K-562 leukemia
[24] = test system: T-47D breast
[25] = test system: OVCAR-4 ovarian
[26] = test system: NCI/ADR-RES ovarian
[27] = test system: HL-60(TB) leukemia
[28] = test system: MDA-MB-231 breast
[29] = test system: U251 CNS
[30] = test system: HCT-116 colon
[31] = test system: KM12 colon
[32] = test system: SF-295 CNS
[33] = test system: UO-31 renal
[34] = test system: RPMI-8226 leukemia
[35] = test system: SK-OV-3 ovarian
[36] = test system: LOX IMVI melanoma
[37] = test system: NCI-H23 lung
[38] = test system: A498 renal
[39] = test system: SK-MEL-28 melanoma
[40] = test system: MALME-3M melanoma
[41] = test system: SR leukemia
[42] = test system: BT-549 breast
[43] = test system: COLO 205 colon
[44] = test system: MDA-MB-435
[45] = test system: SK-MEL-5 melanoma
[46] = test system: UACC-257 melanoma
[47] = test system: SF-268 CNS
[48] = test system: MDA-N
[49] = test system: M14 melanoma
[50] = test system: EKVX NSCLC
[51] = test system: RXF 393 renal
[52] = test system: SK-MEL-2 melanoma
[53] = test system: HOP-62 NSCLC
[54] = test system: IGROV1 ovarian
[55] = test system: OVCAR-3 ovarian
[56] = test system: OVCAR-5 ovarian
[57] = test system: MOLT-4 leukemia
[58] = test system: A549 NSCLC
[59] = test system: PC-3 prostate

## O=c1n(Cc2ccccc2)c(=O)n2c(=O)n(Cc3ccccc3)c(=O)n12
[1]
  TGI: > 100 µM
[2]
  TGI: > 100 µM
[3]
  TGI: > 100 µM
[4]
  TGI: > 100 µM
[5]
  TGI: > 100 µM
[6]
  TGI: > 100 µM
[7]
  TGI: > 100 µM
[8]
  TGI: > 100 µM
[9]
  TGI: > 100 µM
[10]
  TGI: > 100 µM
[11]
  TGI: > 100 µM
[12]
  TGI: > 100 µM
[13]
  TGI: > 100 µM
[14]
  TGI: > 100 µM
[15]
  TGI: > 100 µM
[16]
  TGI: > 100 µM
[17]
  TGI: > 100 µM
[18]
  TGI: > 100 µM
[19]
  TGI: > 100 µM
[20]
  TGI: > 100 µM
[21]
  TGI: > 100 µM
[22]
  TGI: > 100 µM
[23]
  TGI: > 100 µM
[24]
  TGI: > 100 µM
[25]
  TGI: > 100 µM
[26]
  TGI: > 100 µM
[27]
  TGI: > 100 µM
[28]
  TGI: > 100 µM
[29]
  TGI: > 100 µM
[30]
  TGI: > 100 µM
[31]
  TGI: > 100 µM
[32]
  TGI: > 100 µM
[33]
  TGI: > 100 µM
[34]
  TGI: > 100 µM
[35]
  TGI: > 100 µM
[36]
  TGI: > 100 µM
[37]
  TGI: > 100 µM
[38]
  TGI: > 100 µM
[39]
  TGI: > 100 µM
[40]
  TGI: > 100 µM
[41]
  TGI: > 100 µM
[42]
  TGI: > 100 µM
[43]
  TGI: > 100 µM
[44]
  TGI: > 100 µM
[45]
  TGI: > 100 µM
[46]
  TGI: > 100 µM
[47]
  TGI: > 100 µM
[48]
  TGI: > 100 µM

## COCOc1ccc(C2(O)Oc3cc(OCOC)ccc3C2C)c(O)c1 (stereo unspecified)
[1]
  TGI: 29.4 µM
[2]
  TGI: 26.6 µM
[3]
  TGI: 25.8 µM
[4]
  TGI: 27.1 µM
[5]
  TGI: 32 µM
[6]
  TGI: 32.2 µM
[7]
  TGI: 30.4 µM
[8]
  TGI: 29.1 µM
[9]
  TGI: 32.5 µM
[10]
  TGI: 30.4 µM
[49]
  TGI: 30.4 µM
[50]
  TGI: 28.2 µM
[11]
  TGI: 22.3 µM
[12]
  TGI: 30 µM
[13]
  TGI: 30.5 µM
[14]
  TGI: 53.7 µM
[15]
  TGI: 26.7 µM
[16]
  TGI: 32.8 µM
[17]
  TGI: 31.2 µM
[18]
  TGI: 31.6 µM
[19]
  TGI: 32.4 µM
[21]
  TGI: 25.5 µM
[22]
  TGI: 27.9 µM
[23]
  TGI: 44.7 µM
[51]
  TGI: 31.1 µM
[24]
  TGI: 25.8 µM
[25]
  TGI: 32.1 µM
[26]
  TGI: 30.9 µM
[27]
  TGI: 44 µM
[52]
  TGI: 32.7 µM
[28]
  TGI: 25.3 µM
[53]
  TGI: 32 µM
[29]
  TGI: 28.2 µM
[54]
  TGI: 31.6 µM
[30]
  TGI: 27.6 µM
[31]
  TGI: 31.7 µM
[32]
  TGI: 29 µM
[33]
  TGI: 23.8 µM
[34]
  TGI: > 100 µM
[55]
  TGI: 26.2 µM
[56]
  TGI: 31.3 µM
[57]
  TGI: 60.8 µM
[35]
  TGI: 31.8 µM
[36]
  TGI: 34.6 µM
[37]
  TGI: 23.9 µM
[38]
  TGI: 28.8 µM
[39]
  TGI: 31 µM
[40]
  TGI: 28.7 µM
[41]
  TGI: 75.1 µM
[58]
  TGI: 31.9 µM
[42]
  TGI: 28.2 µM
[43]
  TGI: 32.2 µM
[59]
  TGI: 26.3 µM
[44]
  TGI: 28.1 µM
[45]
  TGI: 23 µM
[46]
  TGI: 24.5 µM
[47]
  TGI: 30 µM
[48]
  TGI: 28.7 µM
